In patent publication US8541588B2, “Sulfonamide derivatives” (Pfizer Limited, priority 2009, dated 2013):

Biological target: T1, Nav1.7 (or SCN9A) channel; HEK cells stably transfected with hSCN9A (Homo sapiens, UniProt Q15858)
T1 construct: expressed in transfected cells
Assay: Nav1.7 block, PatchXpress 7000 automated whole-cell voltage clamp, estimated IC50 (EIC50)
Assay type: cell-based
Settings: estimated IC50; hSCN9A HEK cells, PatchXpress platform; Examples 815-1040

T1 sequence (Q15858 whole entry): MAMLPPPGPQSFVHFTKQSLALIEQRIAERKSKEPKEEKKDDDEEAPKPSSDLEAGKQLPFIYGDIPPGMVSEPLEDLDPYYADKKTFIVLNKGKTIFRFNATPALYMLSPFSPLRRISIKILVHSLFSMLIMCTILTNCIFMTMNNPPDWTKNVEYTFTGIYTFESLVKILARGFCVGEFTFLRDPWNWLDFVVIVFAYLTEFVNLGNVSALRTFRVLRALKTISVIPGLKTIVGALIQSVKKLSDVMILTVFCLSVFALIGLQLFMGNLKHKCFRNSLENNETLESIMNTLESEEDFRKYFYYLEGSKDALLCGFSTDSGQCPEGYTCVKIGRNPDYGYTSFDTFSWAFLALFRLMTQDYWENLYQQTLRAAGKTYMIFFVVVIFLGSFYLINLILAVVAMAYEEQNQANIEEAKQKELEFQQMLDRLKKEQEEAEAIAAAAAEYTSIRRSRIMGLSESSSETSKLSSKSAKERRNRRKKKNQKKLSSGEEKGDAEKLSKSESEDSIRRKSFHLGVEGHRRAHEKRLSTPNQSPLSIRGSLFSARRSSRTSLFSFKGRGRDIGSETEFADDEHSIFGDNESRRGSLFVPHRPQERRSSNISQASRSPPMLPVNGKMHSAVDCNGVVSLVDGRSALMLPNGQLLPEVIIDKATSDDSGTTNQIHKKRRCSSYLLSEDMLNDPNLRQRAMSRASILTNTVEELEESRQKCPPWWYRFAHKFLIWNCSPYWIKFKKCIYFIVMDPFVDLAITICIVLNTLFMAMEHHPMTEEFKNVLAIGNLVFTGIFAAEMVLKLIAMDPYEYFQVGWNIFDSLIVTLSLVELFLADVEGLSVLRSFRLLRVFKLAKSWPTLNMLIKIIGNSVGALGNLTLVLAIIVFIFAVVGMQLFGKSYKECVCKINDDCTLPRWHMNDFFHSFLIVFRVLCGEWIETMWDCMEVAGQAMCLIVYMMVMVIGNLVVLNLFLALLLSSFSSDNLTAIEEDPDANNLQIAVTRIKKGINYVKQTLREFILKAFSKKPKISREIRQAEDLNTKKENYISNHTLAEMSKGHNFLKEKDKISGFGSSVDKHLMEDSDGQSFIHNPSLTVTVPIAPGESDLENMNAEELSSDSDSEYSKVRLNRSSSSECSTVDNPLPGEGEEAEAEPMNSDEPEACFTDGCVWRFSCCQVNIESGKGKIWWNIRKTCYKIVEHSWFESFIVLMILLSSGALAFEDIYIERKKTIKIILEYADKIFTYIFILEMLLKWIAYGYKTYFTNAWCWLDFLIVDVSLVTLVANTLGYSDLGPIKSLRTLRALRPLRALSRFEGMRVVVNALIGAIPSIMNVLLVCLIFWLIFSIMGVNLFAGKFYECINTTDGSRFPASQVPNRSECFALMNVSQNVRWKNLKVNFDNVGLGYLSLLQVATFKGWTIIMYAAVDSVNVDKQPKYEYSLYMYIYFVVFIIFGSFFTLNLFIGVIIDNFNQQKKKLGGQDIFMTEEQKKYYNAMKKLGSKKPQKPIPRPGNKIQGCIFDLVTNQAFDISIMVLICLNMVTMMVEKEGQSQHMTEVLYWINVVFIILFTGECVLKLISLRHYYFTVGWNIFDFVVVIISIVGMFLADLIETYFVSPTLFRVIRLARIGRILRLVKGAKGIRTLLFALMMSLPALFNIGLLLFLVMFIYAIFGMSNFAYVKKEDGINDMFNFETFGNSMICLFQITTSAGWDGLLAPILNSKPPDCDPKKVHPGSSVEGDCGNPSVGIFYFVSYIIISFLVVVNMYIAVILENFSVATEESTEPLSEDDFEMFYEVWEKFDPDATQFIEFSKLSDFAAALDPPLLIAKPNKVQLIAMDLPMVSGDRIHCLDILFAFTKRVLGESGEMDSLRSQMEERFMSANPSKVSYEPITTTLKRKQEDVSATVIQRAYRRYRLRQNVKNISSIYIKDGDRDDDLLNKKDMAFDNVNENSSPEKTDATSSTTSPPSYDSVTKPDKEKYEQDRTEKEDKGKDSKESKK

Row | SMILES | IC50 [nM]
1 | O=S(=O)(Nc1nncs1)c1cc(F)c(Oc2ccc(C(F)(F)F)cc2-c2ccnnc2)cc1F [Example 917, 2,5-difluoro-4-[2-pyridazin-4-yl-4-(trifluoromethyl)phenoxy]-N-1,3,4-thiadiazol-2-ylbenzenesulfonamide] | 240
2 | Nc1cc(-c2cc(Cl)ccc2Oc2cc(F)c(S(=O)(=O)Nc3cnccn3)cc2Cl)ccn1 [Example 918, 4-[2-(2-aminopyridin-4-yl)-4-chlorophenoxy]-5-chloro-2-fluoro-N-pyrazin-2-ylbenzenesulfonamide] | 140
3 | O=S(=O)(Nc1ncns1)c1cc(F)c(Oc2ccc(C(F)(F)F)cc2-c2cccnn2)cc1F [Example 920, 2,5-difluoro-4-[2-pyridazin-3-yl-4-(trifluoromethyl)phenoxy]-N-1,2,4-thiadiazol-5-ylbenzenesulfonamide] | 310
4 | Cn1nccc1-c1cc(Cl)ccc1Oc1ccc(S(=O)(=O)Nc2cnsn2)cc1C#N [Example 921, 4-[4-chloro-2-(1-methyl-1H-pyrazol-5-yl)phenoxy]-3-cyano-N-1,2,5-thiadiazol-3-ylbenzenesulfonamide] | 3900
5 | Cn1nccc1-c1cc(Cl)ccc1Oc1ccc(S(=O)(=O)Nc2cc[nH]n2)cc1C#N [Example 922, 4-[4-chloro-2-(1-methyl-1H-pyrazol-5-yl)phenoxy]-3-cyano-N-1H-pyrazol-3-ylbenzenesulfonamide] | >10000
6 | Cn1nccc1-c1cc(Cl)ccc1Oc1ccc(S(=O)(=O)Nc2cccnc2)cc1C#N [Example 923, 4-[4-chloro-2-(1-methyl-1H-pyrazol-5-yl)phenoxy]-3-cyano-N-pyridin-3-ylbenzenesulfonamide] | >10000
7 | N#Cc1ccc(Oc2cc(F)c(S(=O)(=O)Nc3nncs3)cc2Cl)c(-c2ccnnc2)c1 [Example 925, 5-chloro-4-(4-cyano-2-pyridazin-4-ylphenoxy)-2-fluoro-N-1,3,4-thiadiazol-2-ylbenzenesulfonamide] | 660
8 | Cn1nccc1-c1cc(Cl)ccc1Oc1ncc(S(=O)(=O)Nc2ncns2)cc1Cl [Example 927, 5-chloro-6-[4-chloro-2-(1-methyl-1H-pyrazol-5-yl)phenoxy]-N-1,2,4-thiadiazol-5-ylpyridine-3-sulfonamide] | 120
9 | O=S(=O)(Nc1ncns1)c1ccc(Oc2ccc(C(F)(F)F)cc2-c2ccnnc2)c(F)c1 [Example 929, 3-fluoro-4-[2-pyridazin-4-yl-4-(trifluoromethyl)phenoxy]-N-1,2,4-thiadiazol-5-ylbenzenesulfonamide] | 100
10 | O=S(=O)(Nc1ncns1)c1ccc(Oc2cc(F)c(Cl)cc2-c2ccnnc2)c(F)c1 [Example 930, 4-(4-chloro-5-fluoro-2-pyridazin-4-ylphenoxy)-3-fluoro-N-1,2,4-thiadiazol-5-ylbenzenesulfonamide] | 230
11 | O=S(=O)(Nc1ncns1)c1cc(F)c(Oc2ccc(F)cc2-c2ccnnc2)cc1F [Example 931, 2,5-difluoro-4-(4-fluoro-2-pyridazin-4-ylphenoxy)-N-1,2,4-thiadiazol-5-ylbenzenesulfonamide] | 140
12 | N#Cc1cc(S(=O)(=O)Nc2nncs2)ccc1Oc1ccc(OC(F)(F)F)cc1-c1ccnnc1 [Example 933, 3-cyano-4-[2-pyridazin-4-yl-4-(trifluoromethoxy)phenoxy]-N-1,3,4-thiadiazol-2-ylbenzenesulfonamide] | >100
13 | O=S(=O)(Nc1ncccn1)c1cc(Cl)c(Oc2ccc(OC(F)(F)F)cc2-c2ccnnc2)cc1F [Example 945, 5-chloro-2-fluoro-4-[2-pyridazin-4-yl-4-(trifluoromethoxy)phenoxy]-N-pyrimidin-2-ylbenzenesulfonamide] | 99
14 | N#Cc1cc(S(=O)(=O)Nc2nncs2)ccc1Oc1ccc(C(F)(F)F)cc1-c1ccnnc1 [Example 946, 3-cyano-4-[2-pyridazin-4-yl-4-(trifluoromethyl)phenoxy]-N-1,3,4-thiadiazol-2-ylbenzenesulfonamide] | 230
15 | Nc1cc(-c2cc(F)ccc2Oc2cc(F)c(S(=O)(=O)Nc3ncccn3)cc2Cl)ccn1 [Example 949, 4-[2-(2-aminopyridin-4-yl)-4-fluorophenoxy]-5-chloro-2-fluoro-N-pyrimidin-2-ylbenzenesulfonamide] | 87
16 | Cn1nccc1-c1cc(Cl)ccc1Oc1ccc(S(=O)(=O)Nc2ncns2)cn1 [Example 950, 6-[4-chloro-2-(1-methyl-1H-pyrazol-5-yl)phenoxy]-N-1,2,4-thiadiazol-5-ylpyridine-3-sulfonamide] | 2700
17 | N#Cc1cc(S(=O)(=O)Nc2cscn2)ccc1Oc1ccc(C(F)(F)F)cc1-c1ccnnc1 [Example 953, 3-cyano-4-[2-pyridazin-4-yl-4-(trifluoromethyl)phenoxy]-N-1,3-thiazol-4-ylbenzenesulfonamide] | 110

Further compounds by falling IC50, results first:

Row | IC50 [nM] | SMILES
18 | 77 | Cc1cc(S(=O)(=O)Nc2nncs2)c(F)cc1Oc1ccc(Cl)cc1-c1ccnnc1 [Example 943, 4-(4-chloro-2-pyridazin-4-ylphenoxy)-2-fluoro-5-methyl-N-1,3,4-thiadiazol-2-ylbenzenesulfonamide]
19 | 75 | O=S(=O)(Nc1nncs1)c1cc(Cl)c(Oc2ccc(OC(F)(F)F)cc2-c2ccnnc2)cc1F [Example 932, 5-chloro-2-fluoro-4-[2-pyridazin-4-yl-4-(trifluoromethoxy)phenoxy]-N-1,3,4-thiadiazol-2-ylbenzenesulfonamide]
20 | 72 | O=S(=O)(Nc1ncccn1)c1cc(Cl)c(Oc2ccc(Cl)cc2-c2ccnnc2)cc1F [Example 941, 5-chloro-4-(4-chloro-2-pyridazin-4-ylphenoxy)-2-fluoro-N-pyrimidin-2-ylbenzenesulfonamide]
21 | 67 | Nc1cc(-c2cc(Cl)ccc2Oc2cc(F)c(S(=O)(=O)Nc3ncccn3)cc2Cl)ccn1 [Example 926, 4-[2-(2-aminopyridin-4-yl)-4-chlorophenoxy]-5-chloro-2-fluoro-N-pyrimidin-2-ylbenzenesulfonamide]
22 | 53 | O=S(=O)(Nc1ncns1)c1ccc(Oc2cc(Cl)c(F)cc2-c2ccnnc2)c(F)c1 [Example 934, 4-(5-chloro-4-fluoro-2-pyridazin-4-ylphenoxy)-3-fluoro-N-1,2,4-thiadiazol-5-ylbenzenesulfonamide]
23 | 48 | O=S(=O)(Nc1nncs1)c1cc(Cl)c(Oc2cc(C(F)(F)F)ccc2-c2ccnnc2)cc1F [Example 939, 5-chloro-2-fluoro-4-[2-pyridazin-4-yl-5-(trifluoromethyl)phenoxy]-N-1,3,4-thiadiazol-2-ylbenzenesulfonamide]
24 | 40 | N#Cc1ccc(-c2ccnnc2)c(Oc2cc(F)c(S(=O)(=O)Nc3ncns3)cc2Cl)c1 [Example 951, 5-chloro-4-(5-cyano-2-pyridazin-4-ylphenoxy)-2-fluoro-N-1,2,4-thiadiazol-5-ylbenzenesulfonamide]
25 | 35 | O=S(=O)(Nc1nncs1)c1ccc(Oc2ccc(OC(F)(F)F)cc2-c2ccnnc2)c(Cl)c1 [Example 942, 3-chloro-4-[2-pyridazin-4-yl-4-(trifluoromethoxy)phenoxy]-N-1,3,4-thiadiazol-2-ylbenzenesulfonamide]
26 | 31 | N#Cc1cc(S(=O)(=O)Nc2ncns2)ccc1Oc1cc(C(F)(F)F)ccc1-c1ccnnc1 [Example 940, 3-cyano-4-[2-pyridazin-4-yl-5-(trifluoromethyl)phenoxy]-N-1,2,4-thiadiazol-5-ylbenzenesulfonamide]
27 | 31 | Nc1cc(-c2cc(Cl)ccc2Oc2ccc(S(=O)(=O)Nc3ccncn3)cc2Cl)ccn1 [Example 944, 4-[2-(2-aminopyridin-4-yl)-4-chlorophenoxy]-3-chloro-N-pyrimidin-4-ylbenzenesulfonamide]
28 | 25 | N#Cc1cc(S(=O)(=O)Nc2ncns2)ccc1Oc1cc(Cl)c(F)cc1-c1ccnnc1 [Example 938, 4-(5-chloro-4-fluoro-2-pyridazin-4-ylphenoxy)-3-cyano-N-1,2,4-thiadiazol-5-ylbenzenesulfonamide]
29 | 24 | N#Cc1cc(S(=O)(=O)Nc2nncs2)ccc1Oc1ccc(Cl)cc1-c1ccnc(N2CCC2)c1 [Example 919, 4-[2-(2-azetidin-1-ylpyridin-4-yl)-4-chlorophenoxy]-3-cyano-N-1,3,4-thiadiazol-2-ylbenzenesulfonamide]
30 | 23 | O=S(=O)(Nc1nncs1)c1cc(Cl)c(Oc2cc(C(F)(F)F)c(F)cc2-c2ccnnc2)cc1F [Example 947, 5-chloro-2-fluoro-4-[4-fluoro-2-pyridazin-4-yl-5-(trifluoromethyl)phenoxy]-N-1,3,4-thiadiazol-2-ylbenzenesulfonamide]
31 | 19 | N#Cc1cc(S(=O)(=O)Nc2ncns2)ccc1Oc1cc(F)c(Cl)cc1-c1ccnnc1 [Example 924, 4-(4-chloro-5-fluoro-2-pyridazin-4-ylphenoxy)-3-cyano-N-1,2,4-thiadiazol-5-ylbenzenesulfonamide]
32 | 19 | O=S(=O)(Nc1ncns1)c1cc(F)c(Oc2cc(Cl)c(F)cc2-c2ccnnc2)cc1F [Example 937, 4-(5-chloro-4-fluoro-2-pyridazin-4-ylphenoxy)-2,5-difluoro-N-1,2,4-thiadiazol-5-ylbenzenesulfonamide]
33 | 11 | N#Cc1cc(S(=O)(=O)Nc2ncns2)ccc1Oc1cc(C(F)(F)F)c(F)cc1-c1ccnnc1 [Example 948, 3-cyano-4-[4-fluoro-2-pyridazin-4-yl-5-(trifluoromethyl)phenoxy]-N-1,2,4-thiadiazol-5-ylbenzenesulfonamide]
34 | 8 | O=S(=O)(Nc1ncns1)c1cc(F)c(Oc2cc(F)c(Cl)cc2-c2ccnnc2)cc1F [Example 936, 4-(4-chloro-5-fluoro-2-pyridazin-4-ylphenoxy)-2,5-difluoro-N-1,2,4-thiadiazol-5-ylbenzenesulfonamide]
35 | 3.8 | N#Cc1cc(S(=O)(=O)Nc2ncns2)ccc1Oc1ccc(C(F)(F)F)cc1-c1ccnn1C1CNC1 [Example 935, 4-[2-(1-azetidin-3-yl-1H-pyrazol-5-yl)-4-(trifluoromethyl)phenoxy]-3-cyano-N-1,2,4-thiadiazol-5-ylbenzenesulfonamide]
36 | 3.6 | O=S(=O)(Nc1ncns1)c1ccc(Oc2ccc(C(F)(F)F)cc2-c2ccnnc2)c(Cl)c1 [Example 928, 3-chloro-4-[2-pyridazin-4-yl-4-(trifluoromethyl)phenoxy]-N-1,2,4-thiadiazol-5-ylbenzenesulfonamide]
